pIC50: −log10 of the molar value.
Molecular target: T1, mGluR5 receptor (Sus scrofa, UniProt I3LUI7)
T1 construct: 450 μg of protein from brain homogenate with 5 nM ^3[H]-MPEP; from tissue; host or cells: pig brain halves without medulla, cerebellum and pons
Test: [3H]-MPEP mGluR5 receptor binding assay (pig brain homogenate)
Conditions: 5 nM [3H]-MPEP; for % Inhibition of mGluR5 Receptor (pig) [^3H]-MPEP Bond at 10 μM / inhibition at 10 µM: 10 μM compound; for pIC50: read-out: IC50 mGluR5 Receptor (pig) [^3H]-MPEP Bond; for inhibition at 10 µM: read-out: % Inhibition of mGluR5 Receptor (pig) [^3H]-MPEP Bond at 10 μM
Method in brief: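 Radioligand displacement of 5 nM [3H]-MPEP from pig brain homogenate (450 μg protein; medulla, cerebellum and pons removed) in 20 mM Hepes pH 8.0. Compounds were tested at 10 μM, incubated 60 min at room temperature, then filtered and counted by scintillation. Non-specific binding was defined with 10 μM MPEP.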

T1 sequence (I3LUI7 19-1212): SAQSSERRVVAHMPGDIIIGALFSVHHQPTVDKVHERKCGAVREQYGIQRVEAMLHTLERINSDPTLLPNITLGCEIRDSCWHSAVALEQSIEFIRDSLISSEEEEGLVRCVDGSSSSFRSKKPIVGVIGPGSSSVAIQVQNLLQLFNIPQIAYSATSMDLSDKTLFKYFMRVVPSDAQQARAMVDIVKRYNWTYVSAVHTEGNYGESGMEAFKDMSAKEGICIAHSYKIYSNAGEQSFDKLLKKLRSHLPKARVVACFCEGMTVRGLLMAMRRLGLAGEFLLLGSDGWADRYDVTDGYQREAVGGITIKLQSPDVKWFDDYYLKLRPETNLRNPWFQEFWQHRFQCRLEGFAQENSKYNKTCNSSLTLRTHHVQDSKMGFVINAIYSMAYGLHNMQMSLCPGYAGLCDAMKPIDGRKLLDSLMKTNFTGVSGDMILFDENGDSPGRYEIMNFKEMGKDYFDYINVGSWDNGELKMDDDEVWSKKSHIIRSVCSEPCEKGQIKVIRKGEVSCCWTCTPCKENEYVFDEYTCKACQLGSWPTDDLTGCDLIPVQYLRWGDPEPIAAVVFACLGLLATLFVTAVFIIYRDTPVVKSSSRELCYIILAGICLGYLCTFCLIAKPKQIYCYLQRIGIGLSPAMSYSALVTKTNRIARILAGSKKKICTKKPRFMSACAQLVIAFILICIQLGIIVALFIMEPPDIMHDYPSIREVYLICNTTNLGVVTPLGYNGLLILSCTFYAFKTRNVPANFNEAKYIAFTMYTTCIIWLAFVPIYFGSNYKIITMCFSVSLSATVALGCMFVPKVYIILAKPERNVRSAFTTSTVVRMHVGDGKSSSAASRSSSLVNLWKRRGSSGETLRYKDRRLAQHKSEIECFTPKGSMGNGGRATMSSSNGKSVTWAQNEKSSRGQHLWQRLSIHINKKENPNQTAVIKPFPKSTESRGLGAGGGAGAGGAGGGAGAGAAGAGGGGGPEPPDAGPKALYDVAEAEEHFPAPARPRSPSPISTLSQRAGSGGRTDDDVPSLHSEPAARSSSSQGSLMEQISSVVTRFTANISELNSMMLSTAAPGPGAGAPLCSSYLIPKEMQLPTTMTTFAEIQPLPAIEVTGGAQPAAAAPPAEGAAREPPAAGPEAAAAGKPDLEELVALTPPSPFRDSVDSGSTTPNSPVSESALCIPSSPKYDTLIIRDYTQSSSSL

Row | SMILES | inhibition at 10 µM [%] | other results
1 | CC(C)(C)Nc1ncnc2ccc(-c3ccc(F)c(CN(C(=O)c4cccnc4)C4CC4)c3)cc12 [Example 838, N-(5-(4-(tert-butylamino)quinazolin-6-yl)-2-fluorobenzyl)-N-cyclopropyl nicotinamide] | – | % Inhibition of mGluR5 Receptor (pig) [^3H]-MPEP Bond at 10 μM: 92%
2 | O=S(=O)(CC(F)(F)F)N(Cc1cccc(-c2ccc3ncnc(NC4CC4)c3c2)c1)C1CC1 [Example 225, N-cyclopropyl-N-(3-(4-(cyclopropylamino)quinazolin-6-yl)benzyl)-2,2,2-trifluoroethane sulfonamide] | – | pIC50: 5.83
3 | O=S(=O)(c1ccccc1)N(Cc1cc(-c2ccc3ncnc(NC4CC4)c3c2)ccc1Cl)C1CC1 [Example 799, N-(2-chloro-5-(4-(cyclopropylamino)quinazolin-6-yl)benzyl)-N-cyclopropyl benzole sulfonamide] | – | % Inhibition of mGluR5 Receptor (pig) [^3H]-MPEP Bond at 10 μM: 92%
4 | CC(C)S(=O)(=O)N(C)Cc1cc(-c2ccc3ncnc(NCc4ccccc4)c3c2)ccc1F [Example 484, N-(5-(4-(benzylamino)quinazolin-6-yl)-2-fluorobenzyl)-N-methylpropane-2-sulfonamide] | 63 | –
5 | CC(=O)N(C1CC1)C(C)c1cccc(-c2ccc3ncnc(NC4CC4)c3c2)c1 (stereo not shown) [Example 235, N-cyclopropyl-N-{1-[3-(4-cyclopropylamino-quinazolin-6-yl)-phenyl]-ethyl}-acetamide] | – | pIC50: 5.13
6 | Cc1nc(C(=O)N(Cc2cc(-c3ccc4ncnc(NC5CC5)c4c3)ccc2Cl)C2CC2)cs1 [Example 769, N-(2-chloro-5-(4-(cyclopropylamino)quinazolin-6-yl)benzyl)-N-cyclopropyl-2-methylthiazole-4-carboxamide] | 83 | –
7 | COc1ccc(S(=O)(=O)N(Cc2cc(-c3ccc4ncnc(NC5CC5)c4c3)ccc2Cl)C2CC2)cc1 [Example 786, N-(2-chloro-5-(4-(cyclopropylamino)quinazolin-6-yl)benzyl)-N-cyclopropyl-4-methoxybenzole sulfonamide] | – | % Inhibition of mGluR5 Receptor (pig) [^3H]-MPEP Bond at 10 μM: 95%
8 | Cc1nc(NC2CC2)c2cc(-c3ccc(F)c(CN(C(=O)c4csc(C)n4)C4CC4)c3)ccc2n1 [Example 624, N-cyclopropyl-N-(5-(4-(cyclopropylamino)-2-methylquinazolin-6-yl)-2-fluorobenzyl)-2-methylthiazole-4-carboxamide] | 75 | –
9 | O=C(c1ccc(C(F)(F)F)cc1F)N(Cc1cccc(-c2cc(F)c3ncnc(NC4CC4)c3c2)c1)C1CC1 [Example 738, N-cyclopropyl-N-(3-(4-(cyclopropylamino)-8-fluoroquinazolin-6-yl)benzyl)-2-fluoro-4-(trifluoromethyl)benzamide] | 90 | –
10 | CNc1ncnc2ccc(-c3ccc(F)c(CN(C)S(=O)(=O)C(C)C)c3)cc12 [Example 578, N-(2-fluoro-5-(4-(methylamino)quinazolin-6-yl)benzyl)-N-methylpropane-2-sulfonamide] | 76 | –
11 | Cc1nc(NC2CC2)c2cc(-c3ccc(F)c(CN(C(=O)c4ccc(F)cc4F)C4CC4)c3)ccc2n1 [Example 524, N-cyclopropyl-N-(5-(4-(cyclopropylamino)-2-methylquinazolin-6-yl)-2-fluorobenzyl)-2,4-difluorobenzamide] | 85 | –
12 | Cc1cc2ncnc(NC3CC3)c2cc1-c1cccc(CN(C2CC2)S(=O)(=O)Cc2ccccc2)c1 [Example 713, N-cyclopropyl-N-(3-(4-(cyclopropylamino)-7-methylquinazolin-6-yl)benzyl)-1-phenylmethane sulfonamide] | 51 | –
13 | CC(C)NC(=O)N(Cc1cccc(-c2ccc3ncnc(NC4CC4)c3c2)c1)C1CC1 [Example 247, 1-cyclopropyl-1-[3-(4-cyclopropylamino-quinazolin-6-yl)-benzyl]-3-isopropyl-urea] | – | pIC50: 5.13
14 | O=S(=O)(c1ccc(Cl)cc1Cl)N(Cc1cc(-c2ccc3ncnc(NC4CC4)c3c2)ccc1Cl)C1CC1 [Example 794, 2,4-dichloro-N-(2-chloro-5-(4-(cyclopropylamino)quinazolin-6-yl)benzyl)-N-cyclopropyl benzole sulfonamide] | – | % Inhibition of mGluR5 Receptor (pig) [^3H]-MPEP Bond at 10 μM: 93%
15 | O=C(c1ccncc1)N(Cc1cc(-c2ccc3ncnc(NC4CC4)c3c2)ccc1Cl)C1CC1 [Example 763, N-(2-chloro-5-(4-(cyclopropylamino)quinazolin-6-yl)benzyl)-N-cyclopropyl isonicotinamide] | – | % Inhibition of mGluR5 Receptor (pig) [^3H]-MPEP Bond at 10 μM: 86%
16 | Cc1nc(NC2CC2)c2cc(-c3cccc(CN(C(=O)c4ccccc4C(F)(F)F)C4CC4)c3)ccc2n1 [Example 666, N-cyclopropyl-N-(3-(4-(cyclopropylamino)-2-methylquinazolin-6-yl)benzyl)-2-(trifluoromethyl)benzamide] | 43 | –
17 | CC(C)(C)Nc1ncnc2ccc(-c3ccc(F)c(CN(C(=O)C4CCCCC4)C4CC4)c3)cc12 [Example 809, N-(5-(4-(tert-butylamino)quinazolin-6-yl)-2-fluorobenzyl)-N-cyclopropyl cyclohexane carboxamide] | – | % Inhibition of mGluR5 Receptor (pig) [^3H]-MPEP Bond at 10 μM: 48%
18 | O=C(CCc1ccccc1)N(Cc1cc(-c2ccc3ncnc(NC4CC4)c3c2)ccc1Cl)C1CC1 [Example 756, N-(2-chloro-5-(4-(cyclopropylamino)quinazolin-6-yl)benzyl)-N-cyclopropyl-3-phenylpropanamide] | 69 | –

Now from value to compound, other results behind:

Row | inhibition at 10 µM [%] | SMILES | other results
19 | 90 | O=C(c1ccccc1O)N(Cc1cccc(-c2ccc3ncnc(NC4CC4)c3c2)c1)C1CC1 [Example 156, N-cyclopropyl-N-[3-(4-cyclopropylamino-quinazolin-6-yl)-benzyl]-2-hydroxy-benzamide] | –
20 | 66 | CC(C)Nc1ncnc2ccc(-c3cccc(CN(Cc4ccccc4)C(=O)c4ccncc4)c3)cc12 [Example 151, N-benzyl-N-[3-(4-isopropylamino-quinazolin-6-yl)-benzyl]-isonicotinamide] | –
21 | 85 | Cc1ccc(C(=O)N(C)Cc2cccc(-c3ccc4ncnc(NC5CC5)c4c3)c2)cc1 [Example 175, N-[3-(4-cyclopropylamino-quinazolin-6-yl)-benzyl]-4,N-dimethyl-benzamide] | –
22 | 34 | Cc1cccc(CNc2ncnc3ccc(-c4cccc(CN(C(=O)c5cccnc5)C5CC5)c4)cc23)c1 [Example 411, N-cyclopropyl-N-(3-(4-(3-methylbenzylamino)quinazolin-6-yl)benzyl)nicotinamide] | –
23 | 52 | CCCN(Cc1cccc(-c2ccc3ncnc(Nc4ccccc4)c3c2)c1)C(=O)c1ccccc1Cl [Example 119, 2-chloro-N-[3-(4-phenylamino-quinazolin-6-yl)-benzyl]-N-propyl-benzamide] | –
24 | 30 | O=C(c1cc2ccccc2cn1)N(Cc1cccc(-c2ccc3ncnc(N4CCCC4)c3c2)c1)C1CC1 [Example 125, isoquinoline-3-carboxylic acid cyclopropyl-[3-(4-pyrrolidin-1-yl-quinazolin-6-yl)-benzyl]-amide] | –
25 | 34 | Cc1cccc(CNc2ncnc3ccc(-c4cccc(CN(C(=O)c5cc(C)nn5C)C5CC5)c4)cc23)c1 [Example 402, N-cyclopropyl-1,3-dimethyl-N-(3-(4-(3-methylbenzylamino)quinazolin-6-yl)benzyl)-1H-pyrazole-5-carboxamide] | –

Reference: US20090069320A1, “Substituted 4-Amino-Quinazoline Compounds with Metabotropic Glutamate Receptor Regulating Activity and Uses Thereof” (Gruenenthal GmbH, priority 2006, published 2009)
